The values below come from US20130012432A1, “Peptides for Treatment of Obesity” (Novo Nordisk A/S, priority 2010, published 2013).

A word on the solubility: it is how much of the substance goes into solution per volume. Lower therefore signals a poorly soluble substance.

The nature of this data set: physchem. As to the method: From a stock solution in vehicle, either H2O or 10 mM phosphate, containing 1 mg (as weighed) compound per ml, 8-11 aliquots are withdrawn and pH-adjusted individually with HCl/NaOH, to cover the whole pH range.

In brackets after ≈: the same amount, converted by molar mass. Positions of bridges follow the written chain, without caps; N, C: chain ends. Non-standard residues stand in square brackets, D forms with d. Residues, ends and D or L forms follow the SMILES beside them. Groups on a side chain read outwards from the residue. *: point of attachment. Palmitoyl(16-(5-tetrazolyl)) = O=C(CCCCCCCCCCCCCCCc1nnn[nH]1)*; Lys(CH2CO2H)2 = N[C@@H](CCCCN(CC(=O)O)CC(=O)O)C(=O)O; X1 = O=C(O)CCCCCCCCCCCCCCCCC(=O)NCCOCCOCCN*; C17 diacid = O=C(O)CCCCCCCCCCCCCCCC(=O)*; C16 diacid = O=C(O)CCCCCCCCCCCCCCC(=O)*; Hyp = O=C(O)[C@@H]1C[C@@H](O)CN1; hCys = N[C@@H](CCS)C(=O)O; Orn = NCCC[C@H](N)C(=O)O; AEEA = NCCOCCOCC(=O)O

Consider `CC(=O)N[C@H]1CCCNC(=O)C[C@@H](C(=O)N2CCC[C@H]2C(=O)N2CCC[C@H]2C(=O)N[C@@H](CCCNC(=N)N)C(=O)N[C@@H](CCC(=O)O)C(=O)N[C@@H](CCCCN(CC(=O)O)CC(=O)O)C(=O)N[C@@H](CO)C(=O)N[C@@H](CO)C(=O)NCCOCCOCCNC(=O)CCCCCCCCCCCCCCCCC(=O)O)NC(=O)[C@H](Cc2c[nH]c3ccccc23)NC(=O)[C@H](CCCNC(=N)N)NC(=O)[C@@H](Cc2ccccc2)NC(=O)[C@H](Cc2c[nH]cn2)NC1=O` [Example 50, Ac-c[Orn-His-D-Phe-Arg-Trp-Asp]-Pro-Pro-Arg-Glu-Lys(biscarboxymethyl)-Ser-Ser-NH(2-{2-[2-(17-carboxyheptadecanoylamino)ethoxy]ethoxy}ethyl)] (Ac-[Orn]H[dF]RWDPPRE[Lys(CH2CO2H)2]SS-X1; lactam 1-6), for which the solubility reads like this: (pH 6.5, Solubility Conc.) 57 µM (≈ 127 µg/mL); (pH 7, Solubility Conc.) 92 µM (≈ 204 µg/mL); (pH 7.2, Solubility Conc.) 123 µM (≈ 273 µg/mL); (pH 7.4, Solubility Conc.) 156 µM (≈ 347 µg/mL); (pH 7.5, Solubility Conc.) 176 µM (≈ 391 µg/mL); (pH 7.7, Solubility Conc.) 197 µM (≈ 438 µg/mL). The solubility runs as follows: (pH 7.8, Solubility Conc.) 212 µM (≈ 471 µg/mL); (pH 7.9, Solubility Conc.) 208 µM (≈ 462 µg/mL); (pH 8.2, Solubility Conc.) 212 µM (≈ 471 µg/mL).
As for `CC(=O)N[C@H]1CCCNC(=O)C[C@@H](C(=O)N2CCC[C@H]2C(=O)N2CCC[C@H]2C(=O)N[C@@H](Cc2c[nH]cn2)C(=O)N[C@@H](CCC(=O)O)C(=O)N[C@@H](CCCCN(CC(=O)O)CC(=O)O)C(=O)N[C@@H](CCCCNC(=O)COCCOCCNC(=O)CCCCCCCCCCCCCCC(=O)O)C(N)=O)NC(=O)[C@H](Cc2c[nH]c3ccccc23)NC(=O)[C@H](CCCNC(=N)N)NC(=O)[C@@H](Cc2ccccc2)NC(=O)[C@H](Cc2c[nH]cn2)NC1=O` [Example 51, Ac-c[Orn-His-D-Phe-Arg-Trp-Asp]-Pro-Pro-His-Glu-Lys(biscarboxymethyl)-Lys({2-[2-(15-carboxypentadecanoylamino)ethoxy]ethoxy}acetyl)-NH2] (Ac-[Orn]H[dF]RWDPPHE[Lys(CH2CO2H)2]K([AEEA-C16 diacid])-NH2; lactam 1-6), the solubility worked out at 204 µM (≈ 437 µg/mL) (pH 5.3, Solubility Conc.); 280 µM (≈ 600 µg/mL) (pH 5.8, Solubility Conc.); 359 µM (≈ 770 µg/mL) (pH 6.1, Solubility Conc.); 450 µM (≈ 965 µg/mL) (pH 6.4, Solubility Conc.); 460 µM (≈ 986 µg/mL) (pH 6.7, Solubility Conc.); 442 µM (≈ 947 µg/mL) (pH 7, Solubility Conc.). The solubility reads like this: (pH 7.3, Solubility Conc.) 468 µM (≈ 1000 µg/mL); (pH 7.6, Solubility Conc.) 485 µM (≈ 1040 µg/mL); (pH 7.8, Solubility Conc.) 457 µM (≈ 980 µg/mL).
On to `CC(=O)N[C@H]1CCC(=O)NCCC[C@@H](C(=O)N2CCC[C@H]2C(=O)N2CCC[C@H]2C(=O)N[C@@H](CCCNC(=N)N)C(=O)N[C@@H](CC(=O)O)C(=O)N[C@@H](CCCCN(CC(=O)O)CC(=O)O)C(=O)N[C@@H](CCCCNC(=O)COCCOCCNC(=O)CCCCCCCCCCCCCCCc2nnn[nH]2)C(N)=O)NC(=O)[C@H](Cc2c[nH]c3ccccc23)NC(=O)[C@H](CCCNC(=N)N)NC(=O)[C@@H](Cc2ccccc2)NC(=O)[C@H](Cc2c[nH]cn2)NC1=O` [Example 54, Ac-c[Glu-His-D-Phe-Arg-Trp-Orn]-Pro-Pro-Arg-Asp-Lys(biscarboxymethyl)-Lys[(2-{2-[16-(tetrazol-5-yl)hexadecanoylamino]ethoxy}ethoxy)acetyl]-NH2] (Ac-EH[dF]RW[Orn]PPRD[Lys(CH2CO2H)2]K([AEEA-Palmitoyl(16-(5-tetrazolyl))])-NH2; lactam 1-6), for which the solubility runs as follows: (pH 5.5, Solubility Conc.) 22 µM (≈ 48.4 µg/mL); (pH 6.2, Solubility Conc.) 23 µM (≈ 50.6 µg/mL); (pH 6.8, Solubility Conc.) 43 µM (≈ 94.6 µg/mL); (pH 7, Solubility Conc.) 78 µM (≈ 172 µg/mL); (pH 7.1, Solubility Conc.) 95 µM (≈ 209 µg/mL); (pH 7.4, Solubility Conc.) 221 µM (≈ 486 µg/mL). For the same molecule, the solubility reads like this: (pH 7.6, Solubility Conc.) 202 µM (≈ 445 µg/mL); (pH 7.8, Solubility Conc.) 200 µM (≈ 440 µg/mL); (pH 7.9, Solubility Conc.) 217 µM (≈ 478 µg/mL).
In the case of `CC(=O)N[C@H]1CCCNC(=O)C[C@@H](C(=O)N2CCC[C@H]2C(=O)N2CCC[C@H]2C(=O)N[C@@H](Cc2c[nH]cn2)C(=O)N[C@@H](CCC(=O)O)C(=O)N[C@@H](CCCCN(CC(=O)O)CC(=O)O)C(=O)N[C@@H](CCCCNC(=O)COCCOCCNC(=O)CCCCCCCCCCCCCCCC(=O)O)C(N)=O)NC(=O)[C@H](Cc2c[nH]c3ccccc23)NC(=O)[C@H](CCCNC(=N)N)NC(=O)[C@@H](Cc2ccccc2)NC(=O)[C@H](Cc2c[nH]cn2)NC1=O` [Example 55, Ac-c[Orn-His-D-Phe-Arg-Trp-Asp]-Pro-Pro-His-Glu-Lys(biscarboxymethyl)-Lys({2-[2-(16-carboxyhexadecanoylamino)ethoxy]ethoxy}acetyl)-NH2] (Ac-[Orn]H[dF]RWDPPHE[Lys(CH2CO2H)2]K([AEEA-C17 diacid])-NH2; lactam 1-6), the solubility reads like this: (pH 6.3, Solubility Conc.) 152 µM (≈ 328 µg/mL); (pH 6.5, Solubility Conc.) 236 µM (≈ 509 µg/mL); (pH 6.6, Solubility Conc.) 337 µM (≈ 727 µg/mL); (pH 6.7, Solubility Conc.) 436 µM (≈ 941 µg/mL); (pH 6.9, Solubility Conc.) 426 µM (≈ 919 µg/mL); (pH 7.2, Solubility Conc.) 414 µM (≈ 893 µg/mL). The solubility reads like this: (pH 7.6, Solubility Conc.) 422 µM (≈ 910 µg/mL); (pH 7.7, Solubility Conc.) 435 µM (≈ 939 µg/mL); (pH 8, Solubility Conc.) 426 µM (≈ 919 µg/mL).
For `CC(=O)N[C@H]1CCC(=O)NCCC[C@@H](C(=O)N2C[C@H](O)C[C@H]2C(=O)N2C[C@H](O)C[C@H]2C(=O)N[C@@H](CCCNC(=N)N)C(=O)N[C@@H](CC(=O)O)C(=O)N[C@@H](CCCCN(CC(=O)O)CC(=O)O)C(=O)N[C@@H](CCCCNC(=O)COCCOCCNC(=O)CCCCCCCCCCCCCCCc2nnn[nH]2)C(N)=O)NC(=O)[C@H](Cc2c[nH]c3ccccc23)NC(=O)[C@H](CCCNC(=N)N)NC(=O)[C@@H](Cc2ccccc2)NC(=O)[C@H](Cc2c[nH]cn2)NC1=O` [Example 56, Ac-c[Glu-His-D-Phe-Arg-Trp-Orn]-Hyp-Hyp-Arg-Asp-Lys(biscarboxymethyl)-Lys[(2-{2-[16-(tetrazol-5-yl)hexadecanoylamino]ethoxy}ethoxy)acetyl]-NH2] (Ac-EH[dF]RW[Orn][Hyp][Hyp]RD[Lys(CH2CO2H)2]K([AEEA-Palmitoyl(16-(5-tetrazolyl))])-NH2; lactam 1-6), the solubility by setting is: (pH 6.8, Solubility Conc.) 47 µM (≈ 105 µg/mL); (pH 7.1, Solubility Conc.) 79 µM (≈ 176 µg/mL); (pH 7.4, Solubility Conc.) 169 µM (≈ 377 µg/mL); (pH 7.5, Solubility Conc.) 395 µM (≈ 882 µg/mL); (pH 7.6, Solubility Conc.) 521 µM (≈ 1160 µg/mL); (pH 7.7, Solubility Conc.) 408 µM (≈ 911 µg/mL). The solubility turned out to be 524 µM (≈ 1170 µg/mL) (pH 7.8, Solubility Conc.) and 392 µM (≈ 875 µg/mL) (pH 8, Solubility Conc.).
`CC(=O)N[C@H]1CCSSC[C@@H](C(=O)N2CCC[C@H]2C(=O)N2CCC[C@H]2C(=O)N[C@@H](CCCCN)C(=O)N[C@@H](CCC(=O)O)C(=O)N[C@@H](CCCCN(CC(=O)O)CC(=O)O)C(=O)N[C@@H](CCCCNC(=O)COCCOCCNC(=O)CCCCCCCCCCCCCCCc2nnn[nH]2)C(N)=O)NC(=O)[C@H](Cc2c[nH]c3ccccc23)NC(=O)[C@H](CCCNC(=N)N)NC(=O)[C@@H](Cc2ccccc2)NC(=O)[C@H](CO)NC1=O` [Example 58, Ac-c[homoCys-Ser-D-Phe-Arg-Trp-Cys]-Pro-Pro-Lys-Glu-Lys(biscarboxymethyl)-Lys[(2-{2-[16-(tetrazol-5-yl)hexadecanoylamino]ethoxy}ethoxy)acetyl]-NH2] (Ac-[hCys]S[dF]RWCPPKE[Lys(CH2CO2H)2]K([AEEA-Palmitoyl(16-(5-tetrazolyl))])-NH2; disulfide 1-6) had a solubility (pH 3, Solubility Conc.) of 539 µM (≈ 1150 µg/mL); a solubility (pH 3.9, Solubility Conc.) of 56 µM (≈ 119 µg/mL); a solubility (pH 5.9, Solubility Conc.) of 8 µM (≈ 17 µg/mL); a solubility (pH 6.2, Solubility Conc.) of 21 µM (≈ 44.7 µg/mL); a solubility (pH 6.5, Solubility Conc.) of 37 µM (≈ 78.8 µg/mL); a solubility (pH 6.6, Solubility Conc.) of 30 µM (≈ 63.9 µg/mL). The solubility reads like this: (pH 7.5, Solubility Conc.) 80 µM (≈ 170 µg/mL); (pH 7.6, Solubility Conc.) 385 µM (≈ 820 µg/mL); (pH 8.6, Solubility Conc.) 250 µM (≈ 532 µg/mL); (pH 9, Solubility Conc.) 365 µM (≈ 777 µg/mL).
